Reference: US8314234B2, “Bicyclic pyrimidine kinase inhibitors” (Janssen Pharmaceutica N.V., priority 2006, dated 2012)

Assays:
[1] = tested on: HeLa cervical adenocarcinoma; test: Cell Proliferation Inhibition Assay (14C-thymidine incorporation), HeLa; format: cell-based; conditions: Homo sapiens
From the text: (§1) The ability of a test compound to inhibit unregulated cell proliferation may be determined by measuring incorporation of ^14C-labelled thymidine into newly synthesized DNA within cell lines derived from carcinomas originating from several tissues. Accordingly, the anti-proliferative effect of a compound on cells with a variety of phenotypes may be determined.
(§2) Carcinoma cell lines include those such as HeLa cervical adenocarcinoma (American Type Culture Collection (ATCC), Virginia, Cat. #CCL-2), A375 malignant melanoma (ATCC CRL-1619), SK-OV-3 ovarian adenocarcinoma (ATCC HTB-77), HCT-116 colon carcinoma (CCL-247), PC-3 prostate adenocarcinoma (ATCC CRL-1435), and MDA-MB-231 (Xenogen Corp.)
(§3) The carcinoma cells are trypsinized and counted. The cells (3000-8000 count) are added to each well of a 96-well CytoStar tissue culture treated scintillating microplate (Amersham #RPNQ0160) in complete medium (100 μL) and the plate is then incubated in complete medium for 24 hrs at 37° C. in an inert atmosphere containing 5% CO2. Test compound (1 μL) in 100% DMSO is added to the plate test-wells with DMSO only added to control-wells. The plate is incubated in complete medium for a second 24 hr period at 37° C. in an atmosphere containing 5% CO2.
(§4) An aliquot of a solution of Methyl ^14C-thymidine (56 mC/mmol) (NEN #NEC568 or Amersham #CFA532) and complete medium (20 uL to provide 0.2 μCi/well) is then added to each well and the plate is incubated for a third 24 hr period at 37° C. in an atmosphere containing 5% CO2. The plate contents are then discarded, the plate is washed twice with PBS (200 μL) and then PBS (200 μL) is added to each well. The plate is sealed and the degree of methyl ^14C-thymidine incorporation is quantified on a Packard Top Count.

EGFR = molecular target: T1, EGFR (Homo sapiens, UniProt P00533); test: EGFR Kinase Assay; format: biochemical; conditions: test concentration of 2 μM
T1 construct: intracellular portion of EGFR started at nucleotide 2189 (corresponding to amino acid 667) and ended at the termination codon; made in house; host or cells: Sf9 insect cells (baculovirus)
T1 sequence (P00533 669-1210 limits assumed): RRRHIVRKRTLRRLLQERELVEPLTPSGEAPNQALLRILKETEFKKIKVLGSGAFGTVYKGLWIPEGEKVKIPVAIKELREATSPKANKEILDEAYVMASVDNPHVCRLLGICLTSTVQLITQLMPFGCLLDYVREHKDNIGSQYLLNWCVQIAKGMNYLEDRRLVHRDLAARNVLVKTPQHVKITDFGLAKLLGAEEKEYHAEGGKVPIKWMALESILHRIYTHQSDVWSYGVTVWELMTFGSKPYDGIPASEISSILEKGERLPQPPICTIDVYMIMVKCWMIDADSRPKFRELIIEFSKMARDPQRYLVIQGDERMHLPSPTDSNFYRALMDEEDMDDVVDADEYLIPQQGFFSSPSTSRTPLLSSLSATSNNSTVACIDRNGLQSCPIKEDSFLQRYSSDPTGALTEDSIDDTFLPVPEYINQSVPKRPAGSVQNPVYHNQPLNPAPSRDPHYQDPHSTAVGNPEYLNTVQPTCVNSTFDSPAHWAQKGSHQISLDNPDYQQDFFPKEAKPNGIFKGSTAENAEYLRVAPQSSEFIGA
From the text: The EGFR kinase used was a fusion of Glutathione-S-Transferase (GST) and a PCR amplified intracellular portion of EGFR (NM_005228). The intracellular portion of EGFR started at nucleotide 2189 (corresponding to amino acid 667) and ended at the termination codon. The portion was PCR amplified with primers that added the lambda attB sequences to each end, recombined into an entry vector, then into a GST destination vector (as described in Gateway Technologies Manual by Invitrogen Corporation, Carlsbad, Calif.).
The destination vector was recombined in the DH10BAC strain of bacteria to produce a bacmid. The bacmid was transfected into Sf9 cells and the supernatant containing the baculovirus was collected. The GSTEGFR protein was purified using large cultures of Sf9 cells infected with stock virus. After an appropriate period of time, the cells were collected and lysed. The GSTEGFR was then purified from the lysate on Glutathione-Sepharose columns (as described by Amersham Biosciences, Buckinghamshire, United Kingdom).
The EGFR substrate was prepared by biotinylating polyGluTyr (128 mg) (Sigma, St. Louis, Mo.) in a 1×PBS buffer incubated together with a 12-fold molar excess of Sulfo-NHS-LC-Biotin on ice for at least 2 hrs. The free biotin was separated from the biotinylated polyGluTyr on a gel filtration column.
A mixture of a 10× kinase buffer (500 mM Tris at pH 8.0, 100 mM Magnesium Chloride and 1 mM Sodium Vanadate), DTT (1 mM final from 500 mM stock), ATP (5 μM final from 10 mM stock), biotinylated polyGluTyr (10 μg/μL stock), γ-^33P ATP (10 μCi/μL stock) and water was added to each well (90 μL/well) of a Streptavidin Flashplate (Perkin Elmer, Wellesley, Mass.).
Test compound in 100% DMSO (2 μL) was added to the appropriate wells. Diluted GSTEGFR (1:300 dilution in 50 mM Tris at pH 8.0 and 0.1% bovine serum albumin) (10 μL) was added to the wells to initiate the reactions.
The plates were incubated at 30° C. for 1 hr with shaking. The reacted contents were removed and the plates were sequentially washed three times with a 1×PBS stop buffer (300 μL without Magnesium and Calcium) and 100 mM EDTA. After the final wash, the same stop buffer (200 μL) was added to the wells. The plates were then sealed and read on the TopCount scintillation counter.
Test compounds were assayed in triplicate at 16 concentrations at half-log dilutions starting at 200 uM. A maximum and minimum signal for the assay was determined on each plate. The percent inhibition of a test compound was calculated according to the formula
For a series of test concentrations, the IC50 was derived by graphing percent inhibition against the log of the concentrations tested for a given compound. The percent inhibition results are shown in Table 1 at a test concentration of 2 μM. For those compounds with an IC50, the IC50 value is shown in parentheses.

A375 malignant melanoma = test: Cell Proliferation Inhibition Assay (14C-thymidine incorporation), A375; format: cell-based; conditions: Homo sapiens, A-375
From the text: as §1, §2, §3, §4

CDK1 = molecular target: T2, CDK1 (Homo sapiens, UniProt P06493); test: CDK-1 screening assay; format: biochemical
T2 construct: purchased New England Biolabs, Beverly, Mass; 6020; host or cells: insect cells
T2 sequence (P06493 whole entry): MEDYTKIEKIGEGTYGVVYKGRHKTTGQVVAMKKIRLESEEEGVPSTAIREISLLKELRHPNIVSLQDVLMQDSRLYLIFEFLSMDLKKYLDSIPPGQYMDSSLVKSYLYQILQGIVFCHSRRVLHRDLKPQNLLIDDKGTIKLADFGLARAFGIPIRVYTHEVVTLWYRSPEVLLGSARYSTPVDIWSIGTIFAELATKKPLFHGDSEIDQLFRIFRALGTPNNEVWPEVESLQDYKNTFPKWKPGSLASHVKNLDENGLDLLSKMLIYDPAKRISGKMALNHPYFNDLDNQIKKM
T2 sequence (P14635 whole entry partner): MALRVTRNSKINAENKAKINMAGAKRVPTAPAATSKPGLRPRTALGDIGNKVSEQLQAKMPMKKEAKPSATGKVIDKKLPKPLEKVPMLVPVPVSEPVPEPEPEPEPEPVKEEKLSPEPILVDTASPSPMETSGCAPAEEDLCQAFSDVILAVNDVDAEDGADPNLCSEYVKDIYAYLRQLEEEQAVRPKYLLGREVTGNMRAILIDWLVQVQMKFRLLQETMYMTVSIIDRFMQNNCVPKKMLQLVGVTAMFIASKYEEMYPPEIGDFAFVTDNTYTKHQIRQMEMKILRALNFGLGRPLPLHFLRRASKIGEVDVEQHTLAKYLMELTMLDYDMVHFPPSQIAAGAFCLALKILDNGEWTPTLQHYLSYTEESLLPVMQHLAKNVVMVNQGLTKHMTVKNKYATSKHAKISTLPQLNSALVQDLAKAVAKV
Procedure: (§5) 70 μL of the kinase reaction mixture was dispensed into the well of a streptavidin coated FlashPlate™ (Cat. #SMP103, NEN, Boston, Mass.).
(§6) Test compound stock in 100% DMSO (1 μL) was added to the wells resulting in a final concentration of 1% DMSO in the reaction with a 100 μL final reaction volume. Each enzyme was diluted in 50 mM Tris-HCl pH=8.0, 0.1% BSA and 30 μL was added to each well to initiate the reaction. The reaction was incubated for one hour at 30° C. At the end of the 1 hr incubation, the reaction was terminated by aspirating the mixture from the plate and washing the wells twice with PBS containing 100 mM EDTA. The biotinylated peptide substrate became immobilized on the Flashplate and the incorporation of ^33P-γ-ATP was measured by reading the plate on a scintillation counter. Inhibition of the enzymatic activity was measured by observing a reduced amount of ^33P-γ-ATP incorporated into the immobilized peptide.
(§7) A maximum and minimum signal for the assay was determined on each plate. The percent inhibition of a test compound was calculated according to the formula: […]
(§8) The term “ND” means “not determined.”

CDK2 = molecular target: T3, CDK2 (Homo sapiens, UniProt P24941); test: CDK-2 screening assay; format: biochemical
T3 construct: purchased Upstate Biotech, Lake Placid, N.Y
Procedure: as §5, §6
The CDK2 enzyme in complex with cyclin A is commercially available (Upstate Biotech, Lake Placid, N.Y.).
as §7, §8

VEGFR2 = VEGFR2 (Rattus norvegicus, UniProt O08775); test: VEGFR2 screening assay; format: biochemical
Chain of VEGFR2 (O08775 786-1343): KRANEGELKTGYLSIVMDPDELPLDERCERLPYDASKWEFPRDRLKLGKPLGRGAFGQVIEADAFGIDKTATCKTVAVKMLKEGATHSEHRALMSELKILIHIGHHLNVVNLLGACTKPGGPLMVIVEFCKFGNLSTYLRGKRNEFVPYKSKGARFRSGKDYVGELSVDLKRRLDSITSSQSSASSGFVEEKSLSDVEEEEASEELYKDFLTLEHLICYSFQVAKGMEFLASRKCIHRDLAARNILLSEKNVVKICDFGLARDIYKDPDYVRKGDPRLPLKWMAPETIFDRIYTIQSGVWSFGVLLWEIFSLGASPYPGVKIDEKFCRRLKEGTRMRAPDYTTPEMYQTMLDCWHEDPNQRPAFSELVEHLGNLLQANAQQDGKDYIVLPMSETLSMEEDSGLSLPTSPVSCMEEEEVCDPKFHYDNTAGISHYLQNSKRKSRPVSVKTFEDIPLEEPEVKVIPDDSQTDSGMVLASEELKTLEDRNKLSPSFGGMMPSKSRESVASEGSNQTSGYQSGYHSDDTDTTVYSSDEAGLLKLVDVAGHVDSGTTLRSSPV
Procedure: A kinase reaction mixture was prepared containing 50 mM Tris-HCl pH=8, 10 mM MgCl2, 0.1 mM […], 1 mM DTT, 10 μM ATP, 0.025 μM biotinylated histone-H1 peptide substrate and 0.2 μCuries per well ^33P-γ-ATP (2000-3000 Ci/mmol). 70 μL of the kinase reaction mixture was dispensed into the well of a streptavidin coated FlashPlate™ (Cat. #SMP103, NEN, Boston, Mass.).
as §6
The VEGF-R2 enzyme is a fusion protein containing a polyhistidine tag at the N terminus followed by amino acids 786 to 1343 of the rat VEGF-R2 kinase domain (Accession number U93306). The assay used 150 ng of the N-terminal biotinylated peptide biotin-[…]-amide SEQ ID NO: 2) (VEGF-R2) per well.
as §7
For a series of test concentrations, the IC50 was derived by graphing percent inhibition against the log of the concentrations tested for a given compound with results shown in Table 2. For those compounds without an IC50, the inhibition values in percent are shown at a test concentration of 2 μM. The term “ND” means “not determined.”

HCT-116 colon carcinoma = test: Cell Proliferation Inhibition Assay (14C-thymidine incorporation), HCT-116; format: cell-based; conditions: Homo sapiens
From the text: as §1, §2, §3, §4

Row | IC50 [1] | inhibition at 2 µM (EGFR) | IC50 (A375 malignant melanoma) | IC50 (CDK1) | IC50 (CDK2) | IC50 (VEGFR2) | IC50 (HCT-116 colon carcinoma) | Compound
1 | 25 µM | 26% | 100 µM | > 100 µM | 4.4 µM | 23.1 µM | 100 µM | O=S(=O)(NCCO)c1ccc(Nc2nc(Nc3ccccc3)c3cnoc3n2)cc1 [Cpd 20, N-(2-hydroxy-ethyl)-4-(4-phenylamino-isoxazolo[5,4-d]pyrimidin-6-ylamino)-benzenesulfonamide]
2 | 100 µM | 53% | 100 µM | 1.87 µM | 0.533 µM | 13.2 µM | 100 µM | CC(=O)n1ncc2c(Nc3ccc(S(=O)(=O)NCCO)cc3)nc(Nc3ccc(S(=O)(=O)NCCO)cc3)nc21 [Cpd 21, 1-acetyl-N^4,N^6-bis-{4-[(2-hydroxy-ethyl)-amino-sulfonyl]-phenyl}-1H-pyrazolo[3,4-d]pyrimidine-4,6-diamine]
